Experimental data taken from patent US20120004304A1, “BILE SALT ADJUVANT FOR ANIMALS FOR IMPROVING FAT UTILIZATION EFFICIENCY IN THE BODIES OF ANIMALS, AND ANIMAL FEED COMPRISING SAME” (KIMIN INC., priority 2009, published 2012).

Legend:
[1] = Fat emulsifying capacity test; assay type: physicochemical; details: 75% water, 24.3% fat, 0.7% emulsifier (3% of fat), stirred
Procedure: In order to confirm emulsifying capacity of sodiumstearoyl-2-lactylate(hereinafter, referred to as “SSL”) of the present invention, 75% water, 24.3% fat and 0.7% SSL (3% of the amount of fat used) were added and stirred. POE (20)-glyceride, mono-glyceride and lecithin were used as comparative examples.

[2] = Measurement of serum biochemical index; parameters: species or system ICR rats; details: rat, in vivo
Procedure: Feed for animal tests purchased from Shin Chon Feed Co., Ltd, were prepared and various additives were added thereto to obtain a molded animal feed with a predetermined size.
4-week old male ICR rats with a weight of […] were obtained from the laboratory animal center of Seoul National University, were divided into five groups (n=12) and maintained at a temperature of 23±2° C. and a variety of specific animal feeds were administered thereto. At this time, animals of each group were treated with the following chemicals: (percentage (%) means % by weight) • Control Group: animal feed+soybean oil 5% • Experimental Group: animal feed+soybean oil 5%+SSL 0.1% (HLB 20) • Comparative Example 1: animal feed+soybean oil 5%+lecithin 0.1% (HLB 4) • Comparative Example 2: animal feed+soybean oil 5%+glycerin monocaprate 0.1% (HLB 7) • Comparative Example 3: animal feed+soybean oil 5%+POE (20) sorbitan monolaurate 0.1% (HLB 16)
At 15 hours after the final weight of the test animals was measured (25 days), blood was collected from supraorbital […] blood vessel plexus of the rats using a capillary tube, serum was separated, and the following biochemical indexes were measured using a kit. […]

[3] = Fat digestion percentage and ME with SSL in animal feed; assay type: in vivo; details: 0.05% by weight of SSL in animal feed
Source text: The use of SSL enables improvement in digestion and absorption efficiency of fats, growth promotion, improvement of qualities, and an increase in production yield. From the results of preferred experimental examples, it can be seen that, when 0.05% by weight of SSL is used, fat digestion percentage is increased to about 5 to 10% and ME is increased to about 100 kcal/kg.

Row | emulsifying capacity (appearance after stirring) [1] | Molecule | serum GPT and GOT versus control [2] | ME increase [3]
1 | no emulsification | mono-glyceride |  | 
2 | layer separation | POE (20)-glyceride |  | 

Row | Molecule | emulsifying capacity (appearance after stirring) [1] | serum GPT and GOT versus control [2] | ME increase [3]
3 | CCCCCCCCCCCCCCCCCC(=O)OC(C)C(=O)OC(C)C(=O)[O-].[Na+] (centres unmarked) [SSL, sodium stearoyl-2-lactylate] | homogeneous dispersion | considerable improvement in serum GPT and GOT | about 100 kcal/kg
